Assay results reported in patent US20250313554A1, “PTPN2 INHIBITORS” (Ness Therapeutics, Inc., priority 2022, published 2025).
pIC50, pKi: −log10 of the molar value. Where two headings read alike, the source gives them in different places.

Experiments:
[1] = system: B16F10 mouse melanoma cells; experiment: Tumor cells B16F10 cellular growth IFNγ-induced inhibition assay (CellTiter-Glo); format: cell-based; settings: for pIC50 / IC50: B16-F10, 72 h; for pIC50: 3 days of incubation
Experimental: B16F10 mouse melanoma cells (ATCC Cat #CRL-6475) were seeded at a density of 500 cells per well in a 384-well clear bottom plate (Corning Cat #3712, Corning, N.Y.) in 40 μL total volume of DMEM+10% FBS (PanEco Cat #C420, Russia and Sigma Cat #F4135, St. Louis, MO). Cells were allowed to adhere overnight at 37° C., 5% CO2. On the following day, 250× solutions of compounds in DMSO (Sigma Cat #D2650) were prepared into Cmpnds plate (Diamond Well Plate, Axigen, Cat #P-384-120SQ-C-S) (final concentration of 1×) and DMSO only controls were included. Dilution Plate (Diamond Well Plate (Axigen, Cat #P-384-120SQ-C-S) was prepared by adding 49 μL of culture medium per well: half of the plate with culture medium only, half with culture medium+IFNγ (5 ng/ml). A 1 μL aliquot of 250× compounds (Cmpnds plate) was added to 49 μL of culture medium (Dilution plate), then a 10 μL aliquot of the mixture was transferred to Reaction plate with 40 μL of cells followed by centrifugation at 240 g for 1 min. After 3 days of incubation, 10 μL of CellTiter-Glo (Promega) was added to the cells, plates were centrifuged at 240 g for 1 min, and luminescence signal was measured. For each compound, the percent growth inhibition at every compound dose level was calculated relative to the “DMSO/with IFNγ” control and used to determine the IC50.

GST-tagged PTPN2 protein = GST-tagged PTPN2 protein (Homo sapiens (Human), UniProt P17706); experiment: Primary assay of PTPN2 enzymatic activity inhibition (DiFMUP fluorescence); format: biochemical; settings: PTPN2 0.004 ng/μL, DiFUMP substrate 2 μM, 60 min at rt
Experimental: Compound activity was determined using GST-tagged PTPN2 protein (Cat #31592, ActiveMotif) (SEQ ID NO: 1) in an in vitro enzymatic reaction. The enzymatic reaction was carried out in assay buffer (50 mM HEPES Na salt pH 7.2-7.4, 2 mM EDTA, 100 mM NaCl, 52 ng/μL BSA, and 6 mM DTT). The compounds were dispensed on a 384 well Diamond Well Plate (Axigen, Cat #P-384-120SQ-C-S) using the Biomek FX liquid handling system at 100× solutions of compounds in DMSO. 2×PTPN2 (final concentration 0.004 ng/μL) was prepared in 1× Assay buffer and 25 μL of mixture per well was added into Reaction plate (Optiplate, black, Perkin Elmer, Cat #6007270). Add 25 μL of 1× buffer to Ctrl- (Substrate w/o PTPN2) wells followed by centrifugation at 100 g for 1 min. Next step the Compounds were added to Reaction plate using Biomek station via following steps: 3 μl of 100× compounds (in DMSO) were mixed with 27 μL of Assay Buffer, then 5 μL of this mixture was added to Reaction plate with 25 μL of PTPN2 Mix. Plates were centrifuged for 1 min at 100 g and incubated for another 10 min at rt. Finally, 20 μL of 2.5× Substrate (DiFUMP, Invitrogen™ Cat #D6567) mix was added into appropriate wells of Reaction plate to the final concentration of 2 μM, plate was centrifuged at 100 g for 1 min followed by incubation at rt for 60 min, and the Fluorescence Intensity was measured using a Microplate Reader (ClarioStar Plus, excitation 360 nm, emission 450 nm). The % inhibition was then used to calculate the Ki values. The Ki values are shown in Table A, wherein “A” corresponds to Ki<1.0 nm, “B” corresponds to 1.0 nm≤Ki<5.0 nm, “C” corresponds to 5.0 nm≤Ki<10.0 nm, “D” corresponds to 10.0 nm≤Ki<50.0 nm, and “E” corresponds to 50.0 nm≤Ki<100.0 nm, and “F” corresponds to 100.0 nm≤Ki.

[2] = Pharmacokinetic (PK) study in mice, oral bioavailability; format: in vivo, Male CD-1 mice; settings: 10 mg/kg PO vs 2 mg/kg IV, 10% Ethanol, 30% PEG-400, 60% Phosal-50PG
Experimental: Pharmacokinetic (PK) study in mice: Male CD-1 mice obtained from Charles River GmbH (Sulzfeld, Germany) with body weight ranging between 30 g to 40 g were used in the PK studies. Group of 12 mice were given a 2 mg/kg intravenous bolus (IV) dose of test article as a solution in 20% HP-beta-CD, and another group of 9 mice were given a 10 mg/kg oral (PO) dose of test article as a solution or suspension in [10% ethanol, 30% PEG-400 and 60% Phosal-50PG]. Blood samples (˜200 μL per time point) were collected twice from each animal—from orbital sinus and by cardiopuncture at 0.083, 0.25, 0.5, 1, 2, 4, 8 and 24 hours after IV administration, and at 0.5, 1, 2, 4, 8 and 24 hours after PO administration, 3 mice/time point. Blood samples were collected in tubes with Na-EDTA 0.5 M solution (1:10) and centrifuged for 10 min at 10,000 rpm at 2 to 8° C. to harvest plasma. Plasma samples were stored at −80° C. until LC/MS/MS analysis. Concentration in each plasma sample was determined by a non-validated LC/MS/MS. Data is acquired using multiple reaction monitoring (MRM) with specific transitions monitored for each compound. Pharmacokinetic Analysis: PK parameters were calculated by non-compartmental methods as described in Gibaldi and Perrier (Gibaldi and Perrier, 1982) using Phoenix® WinNonlin® version 6.3 (Certara L.P.). Following PO administration, percent bioavailability (Fabs) was determined by dividing the dose normalized mean area under the plasma concentration-time curve, extrapolated to the last time point (AUClast) obtained following PO dose by the mean dose normalized AUC of the animals dosed by IV injection. All PK parameters are presented as mean±standard deviation (SD). PK studies were conducted in mice for exemplary compounds of Formula (I). The percent bioavailability (Fabs) values determined are listed in Table C for certain compounds, together with the dosage, vehicle and form used in the studies.

[3] = B16F10, no IFNγ, read-out: IC50 no IFNγ
[4] = B16F10, with IFNγ, read-out: IC50 + IFNγ
[5] = B16-F10, B16F10, 100 μM compound, no IFNγ, read-out: % Growth Inhibition at 100 μM no IFNγ
[6] = B16-F10, B16F10, 100 μM compound, with IFNγ, read-out: % Growth Inhibition at 100 μM + IFNγ

Chain of GST-tagged PTPN2 protein (P17706 whole entry): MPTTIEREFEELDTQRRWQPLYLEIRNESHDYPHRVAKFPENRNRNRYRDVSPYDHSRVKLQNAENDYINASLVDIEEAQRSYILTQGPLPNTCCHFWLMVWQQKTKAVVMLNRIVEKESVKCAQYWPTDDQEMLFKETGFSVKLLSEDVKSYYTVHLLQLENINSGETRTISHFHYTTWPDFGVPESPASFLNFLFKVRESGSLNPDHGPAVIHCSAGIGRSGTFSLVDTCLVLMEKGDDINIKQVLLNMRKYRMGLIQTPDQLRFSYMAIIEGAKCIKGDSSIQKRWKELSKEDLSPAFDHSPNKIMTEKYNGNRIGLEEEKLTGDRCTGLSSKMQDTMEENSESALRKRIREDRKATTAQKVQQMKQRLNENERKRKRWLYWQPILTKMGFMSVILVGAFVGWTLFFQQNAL

Row | Compound | pIC50 [1, 3] | pIC50 [1, 4] | pKi (GST-tagged PTPN2 protein) | Fabs, % ([2]; form Solution) [%] | Fabs, % ([2]; form Suspension) [%] | inhibition at 100 µM [1, 5] [%] | inhibition at 100 µM [1, 6] [%] | IC50 ([1]; read-out: IC50 + IFNγ (μM)) [µM] | IC50 ([1]; read-out: IC50 no IFNγ (μM)) [µM] | inhibition at 100 µM ([1]; B16-F10, read-out: % Growth Inhibition at 100 μM + IFNγ) [%] | inhibition at 100 µM ([1]; B16-F10, read-out: % Growth Inhibition at 100 μM no IFNγ) [%]
1 | CCCc1c(C)nc(Nc2cc(O)c(N3CC(=O)NS3(=O)=O)c(F)c2)nc1O [Compound 21, 5-[2-fluoro-6-hydroxy-4-[(4-hydroxy-6-methyl-5-propyl-pyrimidin-2-yl)amino]phenyl]-1,1-dioxo-1,2,5-thiadiazolidin-3-one] | < 4.00 | 4.30 to 5.00 | 8.30 to 9.00 | – | – | 10 to 50 | 50 to 75 | – | – | – | –
2 | O=C1CN(c2c(O)cc(NC3=NCCCN3)cc2F)S(=O)(=O)N1 [Compound 2, 5-[2-fluoro-6-hydroxy-4-(1,4,5,6-tetrahydropyrimidin-2-ylamino)phenyl]-1,1-dioxo-1,2,5-thiadiazolidin-3-one] | < 4.00 | > 5.30 | 8.00 to 8.30 | – | – | 10 to 50 | 75 to 100 | – | – | – | –
3 | O=C1CN(c2c(O)cc(Nc3nc(O)c4ccccc4n3)cc2F)S(=O)(=O)N1 [Compound 8, 5-[2-fluoro-6-hydroxy-4-[(4-hydroxyquinazolin-2-yl)amino]phenyl]-1,1-dioxo-1,2,5-thiadiazolidin-3-one] | < 4.00 | 4.30 to 5.00 | > 9.00 | – | – | 10 to 50 | 50 to 75 | – | – | – | –
4 | Cc1ccnc(Nc2cc(O)c(N3CC(=O)NS3(=O)=O)c(F)c2)n1 [Compound 4, 5-[2-fluoro-6-hydroxy-4-[(4-methylpyrimidin-2-yl)amino]phenyl]-1,1-dioxo-1,2,5-thiadiazolidin-3-one] | – | – | ≤ 7.00 | – | – | – | – | > 100 | > 100 | 10 to 50 | 10 to 50
5 | COc1cc(O)nc(Nc2cc(O)c(N3CC(=O)NS3(=O)=O)c(F)c2)n1 [Compound 9, 5-[2-fluoro-6-hydroxy-4-[(4-hydroxy-6-methoxy-pyrimidin-2-yl)amino]phenyl]-1,1-dioxo-1,2,5-thiadiazolidin-3-one] | < 4.00 | 5.00 to 5.30 | > 9.00 | 10.4 | – | 10 to 50 | 75 to 100 | – | – | – | –
6 | O=C1CN(c2c(O)cc(Nc3nc(O)c4c(n3)CCCC4)cc2F)S(=O)(=O)N1 [Compound 39, 5-[2-fluoro-6-hydroxy-4-[(4-hydroxy-5,6,7,8-tetrahydroquinazolin-2-yl)amino]phenyl]-1,1-dioxo-1,2,5-thiadiazolidin-3-one] | < 4.00 | 4.30 to 5.00 | > 9.00 | – | – | 10 to 50 | 50 to 75 | – | – | – | –
7 | CC(C)Cc1c(O)nc(Nc2cc(O)c(N3CC(=O)NS3(=O)=O)c(F)c2)nc1Cl [Compound 42, 5-[4-[(4-chloro-6-hydroxy-5-isobutyl-pyrimidin-2-yl)amino]-2-fluoro-6-hydroxy-phenyl]-1,1-dioxo-1,2,5-thiadiazolidin-3-one] | < 4.00 | 4.30 to 5.00 | > 9.00 | – | – | 10 to 50 | 75 to 100 | – | – | – | –
8 | CC(C)Cc1c(O)nc(Nc2cc(O)c(N3CC(=O)NS3(=O)=O)c(F)c2)nc1O [Compound 13, 5-[4-[(4,6-dihydroxy-5-isobutyl-pyrimidin-2-yl)amino]-2-fluoro-6-hydroxy-phenyl]-1,1-dioxo-1,2,5-thiadiazolidin-3-one] | < 4.00 | 4.30 to 5.00 | 8.30 to 9.00 | – | – | 10 to 50 | 50 to 75 | – | – | – | –

The next lines start with results.

Row | pIC50 [1, 3] | pIC50 [1, 4] | pKi (GST-tagged PTPN2 protein) | Fabs, % ([2]; form Solution) [%] | Fabs, % ([2]; form Suspension) [%] | Compound | inhibition at 100 µM [1, 5] [%] | inhibition at 100 µM [1, 6] [%] | IC50 ([1]; read-out: IC50 + IFNγ (μM)) [µM] | IC50 ([1]; read-out: IC50 no IFNγ (μM)) [µM] | inhibition at 100 µM ([1]; B16-F10, read-out: % Growth Inhibition at 100 μM + IFNγ) [%] | inhibition at 100 µM ([1]; B16-F10, read-out: % Growth Inhibition at 100 μM no IFNγ) [%]
9 | < 4.00 | < 4.00 | 7.00 to 7.30 | – | – | O=C1CN(c2c(O)cc(Nc3ncc(Cl)cn3)cc2F)S(=O)(=O)N1 [Compound 5, 5-[4-[(5-chloropyrimidin-2-yl)amino]-2-fluoro-6-hydroxy-phenyl]-1,1-dioxo-1,2,5-thiadiazolidin-3-one] | 10 to 50 | 10 to 50 | – | – | – | –
10 | < 4.00 | 4.00 to 4.30 | > 9.00 | – | – | Cc1cnc(Nc2cc(O)c(N3CC(=O)NS3(=O)=O)c(F)c2)nc1O [Compound 6, 5-[2-fluoro-6-hydroxy-4-[(4-hydroxy-5-methyl-pyrimidin-2-yl)amino]phenyl]-1,1-dioxo-1,2,5-thiadiazolidin-3-one] | < 10 | 50 to 75 | – | – | – | –
11 | < 4.00 | 5.00 to 5.30 | 8.30 to 9.00 | – | 6.1 | O=C1CN(c2c(O)cc(Nc3nccc(O)n3)cc2F)S(=O)(=O)N1 [Compound 7, 5-[2-fluoro-6-hydroxy-4-[(4-hydroxypyrimidin-2-yl)amino]phenyl]-1,1-dioxo-1,2,5-thiadiazolidin-3-one] | 10 to 50 | 75 to 100 | – | – | – | –
12 | < 4.00 | 4.30 to 5.00 | > 9.00 | – | – | CC(C)Cc1cnc(Nc2cc(O)c(N3CC(=O)NS3(=O)=O)c(F)c2)nc1O [Compound 12, 5-[2-fluoro-6-hydroxy-4-[(4-hydroxy-5-isobutyl-pyrimidin-2-yl)amino]phenyl]-1,1-dioxo-1,2,5-thiadiazolidin-3-one] | 10 to 50 | 50 to 75 | – | – | – | –
13 | < 4.00 | > 5.30 | 8.30 to 9.00 | – | 2.7 | Cc1cc(O)nc(Nc2cc(O)c(N3CC(=O)NS3(=O)=O)c(F)c2)n1 [Compound 10, 5-[2-fluoro-6-hydroxy-4-[(4-hydroxy-6-methyl-pyrimidin-2-yl)amino]phenyl]-1,1-dioxo-1,2,5-thiadiazolidin-3-one] | 10 to 50 | 75 to 100 | – | – | – | –
